Here are results for one compound from patent US11879145B2, “Reagents and methods for replication, transcription, and translation in semi-synthetic organisms” (The Scripps Research Institute, priority 2019, dated 2024).

In assay [1] the test system is sfGFP^151(AXC). The assay can be described thus: In vivo translation screen of XTPs/YTPs: protein shift (AzK incorporation) by DBCO-TAMRA western blot. It counts as cell-based, E. coli. The settings on record: TPT3TP 30 μM, dCNMO-dTPT3 UBP, strain ML2. The protocol: In vivo Translation Screen of XTPs/YTPs. An overnight culture of the SSO strain ML2 carrying the pGEX-MbPylRS TetR plasmid was grown in 2×YT supplemented with 50 mM potassium phosphate, […] chloramphenicol and 100 μg/mL carbenicillin (herein referred to in this section as “media”), then diluted back to an OD600 of 0.03 in the same media and grown to an OD600 of 0.4 to 0.6. The culture was then chilled with shaking over ice-water for 15 minutes then pelleted by centrifugation at 3,200×g for 10 min. Cells were then resuspended and washed with ice-cold ddH2O twice then resuspended in ice-cold ddH2O to OD600 of 55-65. The electrocompetent cells (50 μL) and 1 ng of Golden Gate assembled plasmid with the UBP within the sfGFP and tRNAPyl genes (see Golden Gate Assembly of Plasmids) were transferred to a pre-chilled electroporation cuvette (0.2-cm-gap), then electroporated (Gene Pulser II; Bio-Rad) according to manufacturer's recommendations (voltage […], capacitor 2.5 μF, resistor 200Ω), and then immediately diluted with 950 μL of media. An aliquot (40 μL) of the transformation was then diluted five-fold in media supplemented with dCNMOTP (25 μM) and dTPT3TP (10 μM) for a final volume of 200 μL then allowed to recover for 1 h shaking at 37° C. Two-fold dilutions of the recovery were plated onto solid media supplemented with zeocin (50 μg/mL), dCNMOTP (10 μM), dTPT3TP (10 μM), and agar (2% w/v), then grown at 37° C. for 18 h. Single colonies were picked and grown in media (300 μL) supplemented with 50 μg/mL zeocin and provided dCNMOTP (25 μM) and dTPT3TP (10 μM) (herein afterward referred to in this section as “growth media”). The culture was monitored for cell growth (Envision 2103 Multilabel Plate Reader with a 590/20 nm filter) and then collected at an OD600˜1.0. An aliquot (50 μL) was subjected to plasmid isolation using the ZR Plasmid Prep Kit (Zymo Research). Isolated plasmids were then subjected to the streptavidin gel shift assay described below (using primers P3-4 and P5-6, Table S1) to determine UBP retention.
A colony with excellent UBP retention was then diluted to an OD600˜0.01 in growth media and grown to OD600˜0.4-0.6. This culture was then divided into multiple 300 μL cultures and for the screen of XTP analogs, each was provided with the corresponding XTP (at either 25 μM or 250 μM) or ddH2O for “−XTP” samples, TPT3TP (30 μM), and AzK (10 mM). For the screen of YTP analogs, each 300 μL culture was provided with the corresponding YTP (at either 25 μM or 250 μM) or ddH2O for “−YTP” samples, NaMTP (250 μM), and AzK (10 mM). Samples were shielded from light after addition of AzK to prevent photodegradation. These samples were then grown at 37° C. for 20 min before adding 1 mM IPTG and grown at 37° C. for an additional 1 h to induce T7 RNAP and transcription of tRNAPyl and PylRS. From this point on, cells were monitored for growth and fluorescence. Expression of sfGFP was then induced with anhydrotetracycline (100 ng/mL). After an additional 3 h of growth at 37° C., cells were collected (230 μL for affinity purification of sfGFP), cooled, and then pelleted and stored at −80° C. before protein purification.
Affinity Purification of sfGFP. Cell pellets collected from translation experiments were resuspended in BugBuster (100 μL 1×, EMD Millipore) and shaken at room temperature for 15 min. […]
On the technique in general: A western blot detects proteins with antibodies after separation by electrophoresis.

The subject of assay [2] is sfGFP^151(AXC). In words: Optimization of unnatural ribonucleotide triphosphate concentrations (sfGFP fluorescence and protein shift). It is filed as cell-based, E. coli. As for the experimental part: Examples 1A, 1B, and 2 identified dCNMO-dTPT3 as a competent UBP for the storage of information, and TAT1TP and NaMTP or 5FMTP as competent ribonucleoside triphosphates for its retrieval. Upon transformation with the same plasmids used above, 10 μM dTPT3TP and 25 μM dCNMOTP were provided in the growth media, which was then also supplemented with TAT1TP at concentrations ranging from 100 μM to 12.5 μM, and either NaMTP or 5FMTP at concentrations ranging from 200 μM to 12.5 μM, all in series of 2-fold dilutions, and after the addition of 1 mM AzK, the cells were induced to express sfGFP. […] In both cases, fluorescence was higher at lower concentrations of NaMTP or 5FMTP (due to increased production of contaminating natural sfGFP, see below). Additionally, cells generally produced higher fluorescence at higher concentrations of TAT1TP. […] Protein production was again quantified via the gel shift assay (FIG. 6C and FIG. 6D). Generally, as the concentration of NaMTP decreased below 200 μM, incrementally lower fidelity of AzK incorporation into sfGFP was observed, while with use of 5FMTP this reduction in fidelity was only observed below a concentration of 50 μM. Clearly lower concentrations of 5FMTP can be used without compromising fidelity. Cells provided with a high concentration of 5FMTP (≥50 µM) produced high protein shifts at all concentrations of TAT1TP explored (100 μM, 50 μM, 25 μM, or 12.5 μM).
Optimization of in vivo Translation Conditions. An overnight culture of the SSO strain ML2 carrying the pGEX-MbPylRS TetR plasmid was grown in 2×YT supplemented with 50 mM potassium phosphate, […] chloramphenicol and 100 μg/mL carbenicillin (herein referred to in this section as “media”), then diluted back to an OD600 of 0.03 in the same media and grown to an OD600 of 0.4-0.6. The culture was then chilled with shaking over ice-water for 15 min then pelleted by centrifugation at 3,200×g for 10 min. Cells were then resuspended and washed with ice-cold ddH2O twice then resuspended in ice-cold ddH2O to an OD600 of 55-65. The electrocompetent cells (50 μL) and ˜1 ng of Golden Gate assembled plasmid with the UBP within the sfGFP and tRNAPyl genes (see Golden Gate Assembly of Plasmids) were transferred to a pre-chilled electroporation cuvette (0.2-cm-gap), then electroporated (Gene Pulser II; Bio-Rad) according to manufacturer's recommendations (voltage […], capacitor 2.5 μF, resistor 200Ω), and then immediately diluted with 950 μL of media. […] The culture was monitored for cell growth (Envision 2103 Multilabel Plate Reader with a 590/20 nm filter) and then collected at an OD600˜1.0. […]

Take `COc1cc2ccccc2cc1[C@@H]1O[C@H](COP(=O)(O)OP(=O)(O)OP(=O)(O)O)[C@@H](O)[C@H]1O` [NaMTP]: the “sfGFP protein gel shift (ncAA incorporation)” value in the assay on sfGFP^151(AXC) [1] (XTP 25 μM) is 86%; in the assay with sfGFP^151(AXC) [1] (XTP 250 μM) it was 98%. Besides, the “Concentration for combined optimization of protein purity and yield” value with sfGFP^151(AXC) [2] (NaMTP and TAT1TP pair) amounted to 200 µM. In addition, in the assay with sfGFP^151(AXC) [2] (with TAT1TP 12.5-100 μM), the “XTP concentration below which lower fidelity of AzK incorporation into sfGFP was observed” value worked out at 200 µM.
